Test results from US20250213474A1, “COMPOSITIONS AND METHODS FOR METAL CONTAINING FORMULATIONS CAPABLE OF MODULATING IMMUNE RESPONSE” (The Regents of the University of Michigan, priority 2021, published 2025).

Tests used:
CT26 colon cancer cells = test: CT26 tumor model, intratumoral cdAMP(ps)2 formulations; type: in vivo, Balb/c mice
Description: When tumor size reach ˜60 mm^3, 2 doses of 25 ug/dose cdAMP(ps)2 were administrated intra-tumorally on days 10 and 15. To evaluate antigen-specific immune responses, PBMCs were collected for tetramer staining on day 17 and ELISPOT analysis with AH1 antigen peptides on day 22. […] Although CDN-Zn seemed to better inhibit tumor growth, compared with CDN and CDNs@CaP/PEI-PEG, there was no statistical difference among them. For the survival of mice after treatment, median survival time for untreated, CDN, CDN-Zn and CDNs@CaP/PEI-PEG group was 23 days, 42 days, 64 days and unreached, respectively (FIG. 4B).
All animals were cared for following federal, state, and local guidelines. All work performed on animals was in accordance with and approved by the University Committee on Use and Care of Animals (UCUCA) at University of Michigan, Ann Arbor. Female Balb/c mice of age 6-8 weeks (Jackson Laboratories) were inoculated with 1×10^5 CT26 colon cancer cells. When tumor size achieved ˜100 mm^3, 2 doses of 25 ug cdAMP(ps)2 in different formulations were administrated via intra-tumoral route on day 10 and day 15. Tumor size and survival were monitored every 2 or 3 days. Tumor size was calculated based on equation: volume=length×width^2×0.5. Animals were euthanized when the tumor reached 1.5 cm in diameter or when animals became moribund with severe weight loss or ulceration. At day 17, the percentages of tumor antigen-specific CD8α+ T cells among PBMC were analyzed using the tetramer staining assay as described previously with peptide-MHC tetramer ([…] AH1) (the NIH Tetramer Core Facility, Atlanta, GA). On day 22, ELISPOT assay was performed with PBMC from the treated mice as described previously.
All animals were cared for following federal, state, and local guidelines. All work performed on animals was in accordance with and approved by the University Committee on Use and Care of Animals (UCUCA) at University of Michigan, Ann Arbor. Female Balb/c mice of age 6-8 weeks (Jackson Laboratories) were inoculated with 1×10^5 CT26 colon cancer cells. When tumor size achieved ˜50 mm^3, indicated drugs or formulations were administrated via the indicated route. Tumor size and survival were monitored every 2 or 3 days. Tumor size was calculated based on equation: volume=length×width^2×0.5. Animals were euthanized when the tumor reached 1.5 cm in diameter or when animals became moribund with severe weight loss or un-healing ulceration. At day 17, the percentages of tumor antigen-specific CD8α+ T cells among PBMC were analyzed using the tetramer staining assay as described previously with peptide-MHC tetramer ([…] AH1) (the NIH Tetramer Core Facility, Atlanta, GA). […]
We also evaluated a subset of the formulations mentioned above in tumor-bearing mice. […]

[1] = test system: cGAS-STING-Type I IFN pathway; test: Inhibition of DNA/lipofectamine-induced IFN-I response in THP 1 dual-KI-hSTING WT(R232) reporter cells; type: cell-based, human; details: DNA/lipofectamine complex challenging, ISRE induced luminescence
Source text: (§1) FIGS. 18A-18F: Chelating metal ions to inhibit cGAS-STING-Type I IFN pathway. (FIG. 18A) Molecular structure of representative chelators that could inhibit cGAS-STING-Type I IFN pathway. (FIGS. 18B-18C) Dose-inhibition curves of the IFN-I response (FIG. 18B) and NF-kB inflammation response (FIG. 18C) by the indicated compounds in DNA/lipofectamine 2000 (ThermoFisher, 11668027) treated THP 1 dual-KI-hSTING^WT(R232) reporter cells (Invivogen, thpd-r232). (FIG. 18D) Cellular viability of FIGS. 18B-18C. (FIG. 18E) Dose-inhibition curves of the IFN-I response by the indicated compounds in DNA/lipofectamine 2000 (ThermoFisher, 11668027) treated THP 1-ISG hSTING^HAQ reporter cells (Invivogen, thp-isg). […]
(§2) Given the interesting function of metal ions on modulating innate immune response in our finding, we further evaluated whether chelating metal ions could inhibit the according innate immune pathways, which may be used to treat autoimmune diseases, such as Systemic lupus erythematosus, Aicardi-Goutieres syndrome, Acute pancreatitis Age-dependent macular degeneration, Alcoholic liver disease, Liver fibrosis, Metastasis, Myocardial infarction, Nonalcoholic steatohepatitis (NASH), Parkinson's disease, Polyarthritis/fetal and neonatal anemia, Sepsis, inflammatory bowel disease, multiple sclerosis, etc. […] By a ISRE induced luminescence, we could read the degree of inhibition. […]

[2] = test system: THP 1 dual-KI-hSTING^WT(R232) reporter cells; test: Cellular viability of chelator-treated THP 1 dual-KI-hSTING WT(R232) reporter cells; type: cell-based, human
Source text: as §1, §2

[3] = 2 doses of 25 ug/dose cdAMP(ps)2 intratumorally on days 10 and 15

Compound	average tumor growth compared with the untreated group (CT26 colon cancer cells; [3])	median survival time (CT26 colon cancer cells; [3]) [days]	AH1 antigen-specific T cell response (ELISPOT) (CT26 colon cancer cells; day 22, seven days after the 2nd dose)	complete tumor regression (CT26 colon cancer cells; individual tumor growth curves, 5 mice per group)	IC50 of DNA-induced Type I IFN response [1]	tolerability in in-vitro assay (cellular viability) [2]
cdAMP(ps)2 [free CDN]	greatly delayed	42	significant AH1 antigen-specific T cell response	2 out of 5		
O=C(OC[C@H]1O[C@@H](OC(=O)c2cc(O)c(O)c(OC(=O)c3cc(O)c(O)c(O)c3)c2)[C@H](OC(=O)c2cc(O)c(O)c(OC(=O)c3cc(O)c(O)c(O)c3)c2)[C@@H](OC(=O)c2cc(O)c(O)c(OC(=O)c3cc(O)c(O)c(O)c3)c2)[C@@H]1OC(=O)c1cc(O)c(O)c(OC(=O)c2cc(O)c(O)c(O)c2)c1)c1cc(O)c(O)c(OC(=O)c2cc(O)c(O)c(O)c2)c1 [tannin acid, Tannic acid]					as low as nanomolar level	well-tolerated
O=C1O[C@H]2[C@@H]3OC(=O)c4cc(O)c(O)c(O)c4-c4c(O)c(O)c5oc(=O)c6c(c(O)c(O)c7oc(=O)c4c5c76)-c4c(cc(O)c(O)c4O)C(=O)OC[C@H]3OC(O)[C@@H]2OC(=O)c2cc(O)c(O)c(O)c2-c2c1cc(O)c(O)c2O (mixture of isomers) [Punicalagin]					as low as nanomolar level	well-tolerated
